Publication PMC11439058, “Exploiting the bile acid binding protein as transporter of a Cholic Acid/Mirin bioconjugate for potential applications in liver cancer therapy” (Scientific Reports, 2024)
Several values for one entry are separate records, joined by “and”; a condition that tells them apart may be missing. Equal entries are not always repeated. Where two headings read alike, the source gives them in different places. Each block holds one molecule with its values, some of them ahead of it.

Legend:
[1] = tested on: Salmonella typhimurium strain TA98; assay: Mutagenicity assay: Ames test, TA98; conditions: for concentration from which a mutagenic effect is shown: Salmonella typhimurium, 90 min
Experimental: (§1) Mutagenicity assay: Ames test. The TA100 and TA98 strains of Salmonella Typhimurium were utilized for mutagenicity assay. Approximately 107 bacteria were exposed to 6 concentrations of each test compound, as well as a positive and a negative control, for 90 min in a medium containing sufficient histidine to support approximately two cell divisions. After 90 min, the exposure cultures were diluted in pH indicator medium lacking histidine, and aliquoted into 48 wells of a 384-well plate. Within two days, cells which had undergone the reversion to His grew into colonies. Metabolism by the bacterial colonies reduced the pH of the medium, changing the color of that well. This color change can be detected visually or by a microplate reader. The number of wells containing revertant colonies were counted for each dose and compared to a zero-dose control. Each dose was tested in six replicates. The following concentrations of Mirin and CA-M11 were tested: 5; 10; 30; 50; 80 and 100 µM. The concentration values tested of Doxorubicin were: 0.3; 1.2; 1.8; 3.0; 6.0 and 30 µM. The experiments were then repeated adding to Doxorubicin concentrations ranging from 0.3 to 30 µM, respectively, Mirin 5 µM and CA-M11 5 µM.

[2] = tested on: Salmonella typhimurium strain TA100; assay: Mutagenicity assay: Ames test, TA100; conditions: for concentration from which a mutagenic effect is shown: Salmonella typhimurium, 90 min
Experimental: as §1

PAMPA assay = format: in vitro ADME; conditions: 4 h, rt
Experimental: PAMPA assay. The DMSO stock solution of each compound was diluted 1:1 v/v with phosphate buffer (PBS 10 mM, pH 7.4) to obtain donor solutions. Each well of the filter plate was covered with a 1% w/v L-α-phosphatidylcholine solution (PC) in dodecane used to mimic the phospholipidic bilayer and then added with the donor. In the acceptor plate, a mixture solution of DMSO/PBS 1:1 v/v was placed, and the sandwich was incubated at rt for 4 h under gentle shaking. At the end time point, samples were taken from both the upper and the lower plates and analyzed using the UV/LC-MS method described above. Apparent permeability (Papp cm/s x 10^−6) and membrane retention (MR %) was calculated as previously reported.

in vitro [3] = assay: in vitro
Experimental: (§2) Plasma Stability and stability in the cellular medium. A DMSO stock solution of tested compounds was incubated in the presence of human plasma ([…]) and HEPES buffer (25 mM, 140 mM NaCl, pH 7.4) or DMEM 10% FBS, (1% PS, and 1% Glu) at 37 °C under shaking. At selected time points (0, 0.083, 0.25, 0.5, 1, 2, 8, 24 h), samples were treated with cold ACN to stop reactions through protein denaturation, and centrifuged at 5000 rpm for 10 min. The supernatant was analyzed by UV/LC-MS to monitor the amount of unmodified compound. Data were calculated with Excel and plotted using GraphPad Prism 8.0 (GraphPad Software Inc., San Diego, CA, USA). The half-life value (t1/2) was calculated with the following formula: [drawing 2]

in vitro [4] = assay: in vitro; remark: listed apart in the source
Experimental: as §2

[5] = HepG2 cytotoxicity, Neutral Red Uptake; format: cell-based, Human; conditions: human
Experimental: (§3) Cell cultures and cytotoxicity assay. To evaluate the in vitro cytotoxicity of the test samples, the direct contact tests, proposed by ISO […], Biological evaluation of medical devices – Part 5: Tests for cytotoxicity: in vitro methods were used[71]. This test is suitable for sample with various shapes, sizes, or physical status (i.e. liquid or solid).
(§4) Evaluation of HepG2 viability. Cells were maintained in DMEM at 37 °C in a humidified atmosphere containing 5% CO2. The culture medium was supplemented with 10% fetal calf serum (FCS), 1% L-glutamine-penicillin-streptomycin solution, and 1% MEM Non-Essential Amino Acid Solution. Once at confluence, cells were washed with PBS 0.1 M, taken up with trypsin-EDTA solution and then centrifuged at 1000 rpm for 5 min. The pellet was re-suspended in medium solution (dilution 1:15).
(§5) The stock solutions of Mirin, Doxorubicin, and CA-M11 were prepared in DMSO. The following concentrations of Mirin and CA-M11 were tested: 5; 10; 20; 30; 40; 50; 60; 70; 80; 90 and 100 µM. […] Then, the experiments were repeated adding to Doxorubicin concentrations ranging from 0.3 to 6.0 µM, respectively, Mirin 5 µM, and CA-M11 5 µM. […] Each experiment was repeated 3 times, and all samples were set up in six replicates. A complete medium was used as negative control. […] At the end of the incubation, the routine culture medium was removed from each well, and cells were carefully rinsed with 1 mL of pre-warmed D-PBS. Multiwells were then gently blotted with paper towels. […] The cells were checked during the NR incubation for NR crystal formation. After incubation, the NR Medium was removed, cells were carefully rinsed with 1 mL of pre-warmed D-PBS. Then, the PBS was decanted and blotted from the wells and exactly 1 mL of NR Desorb solution was added to each sample. […] During this step the samples were covered in order to protect them from light. After 5 min from the plate shaker removal the absorbance was read at 540 nm by a UV/visible spectrophotometer (UV5, Mettler Toledo).

HepG2 cells = assay: HepG2 cytotoxicity, Neutral Red Uptake; format: cell-based, Human
Experimental: as §3, §4, §5

[6] = Extraction recovery from denatured microsomes (matrix effect); conditions: human, Recovery (% Rec, Time 0'), denatured human liver microsomes
Source text: Therefore, matrix effects were investigated by preparing fresh time-zero solutions made of denatured microsomes, solvent mix and tested compounds. To have a better correlation with the time-zero of the metabolic stability experiments, final volumes and concentrations used were not modified.
Extraction Recovery % (% Rec) of CA-M11 and Mirin in human liver microsomes. Data are reported as the mean ± standard deviation (SD) of n=3 experiments run in triplicates.

[7] = Microsomal (metabolic) stability; format: in vitro ADME; conditions: human liver microsomes
Experimental: Microsomal stability. In the presence of phosphate buffer (PBS 10 mM, pH 7.4), human liver microsomes (HLM) (0.2 mg mL^−1), and a NADPH solution in MgCl2 48 mM, each DMSO compound solution was incubated at 37 °C for 1 h under shaking. Then, the metabolizing reactions were stopped by adding cold acetonitrile (ACN). After centrifuging and drying the reaction mixes under N2 flow, the quantitative analyses were performed using the UV/LC-MS method previously described. The percentages of the metabolized and unmetabolized compounds were calculated as previously described[73],[74].

SMILES: C[C@H](CCC(=O)Oc1ccc(/C=C2\SC(=N)NC2=O)cc1)[C@H]1CCC2C3C(C[C@H](O)[C@@]21C)[C@@]1(C)CC[C@@H](O)CC1C[C@H]3O (stereo partly drawn) [CA-M11, (4R)-4-((Z)-(2-Imino-4-oxothiazolidin-5-ylidene)methyl)phenyl 4-((3R,7R,10 S,12 S,13R,17R)-3,7,12-trihydroxy-10,13-dimethylhexadecahydro-1 H-cyclopenta[a]phenanthren-17-yl)pentanoate]
concentration from which a mutagenic effect is shown [1]: ≥ 10 µM
concentration from which a mutagenic effect is shown [2]: ≥ 10 µM
Membrane retention MR (%) (PAMPA assay): 2.26 ± 0.64%
Plasma stability (% ± SD) (in vitro [3]; human, 0 h, pH 7.4): 72.79 ± 2.57%
Plasma stability (% ± SD) (in vitro [3]; human, 0.083 h, pH 7.4): 74.01 ± 0.65%
Plasma stability (% ± SD) (in vitro [3]; human, 0.25 h, pH 7.4): 72.29 ± 3.22%
Plasma stability (% ± SD) (in vitro [3]; human, 0.5 h, pH 7.4): 75.47 ± 0.04%
compound hydrolyzed by plasmatic esterases (in vitro [3]; human, pH 7.4): Approximately 30%
half-life (in vitro [3]; human, plasma, pH 7.4, t 1/2 (half-life) in plasma): ~18 h
DMEM cell culture medium stability (% ± SD) (in vitro [4]; 0 h): 93.96 ± 5.76%
DMEM cell culture medium stability (% ± SD) (in vitro [4]; 0.083 h): 91.94 ± 0.85%
DMEM cell culture medium stability (% ± SD) (in vitro [4]; 0.25 h): 94.24 ± 0.37%
DMEM cell culture medium stability (% ± SD) (in vitro [4]; 0.5 h): 94.77 ± 0.60%
DMEM cell culture medium stability (% ± SD) (in vitro [4]; 1 h): 92.08 ± 2.15%
DMEM cell culture medium stability (% ± SD) (in vitro [4]; 2 h): 82.83 ± 3.38%
half-life (in vitro [4]; buffer): 21.7 h
IC50 at 24 h [5]: 40 µM
cytotoxic effect on HepG2 cells at 5 µM (HepG2 cells): does not exert a significant cytotoxic effect
increase of cell death in combination with Doxorubicin (HepG2 cells; 5 µM compound + Doxorubicin 2.4 µM, HepG2, 24 h): roughly 40%
recovery at 0 min [6]: < 70%

SMILES: COc1cccc2c1C(=O)c1c(O)c3c(c(O)c1C2=O)C[C@@](O)(C(=O)CO)C[C@@H]3O[C@H]1C[C@H](N)[C@H](O)[C@H](C)O1 [Doxorubicin]
concentration from which a mutagenic effect is shown [1]: ≥ 10 µM
concentration from which a mutagenic effect is shown [2]: ≥ 10 µM
viability at 24 h, 0.3 µM ([5]; HepG2 cells, Doxorubicin 0.3 µM, 24 h, read-out: Percentage of viable HepG2 cells): 84.7%
viability at 24 h, 0.6 µM ([5]; HepG2 cells, Doxorubicin 0.6 µM, 24 h, read-out: Percentage of viable HepG2 cells): 73.4%
viability at 24 h, 1.2 µM ([5]; HepG2 cells, Doxorubicin 1.2 µM, 24 h, read-out: Percentage of viable HepG2 cells): 65%
viability at 24 h, 1.8 µM ([5]; HepG2 cells, Doxorubicin 1.8 µM, 24 h, read-out: Percentage of viable HepG2 cells): 49.9%
viability at 24 h, 2.4 µM ([5]; HepG2 cells, Doxorubicin 2.4 µM, 24 h, read-out: Percentage of viable HepG2 cells): 38.4%
viability at 24 h, 3 µM ([5]; HepG2 cells, Doxorubicin 3.0 µM, 24 h, read-out: Percentage of viable HepG2 cells): 28.3%
viability at 24 h, 6 µM ([5]; HepG2 cells, Doxorubicin 6.0 µM, 24 h, read-out: Percentage of viable HepG2 cells): 18.9%
viability at 24 h, 12 µM ([5]; HepG2 cells, Doxorubicin 12.0 µM, 24 h, read-out: Percentage of viable HepG2 cells): 5.8%
IC50 at 24 h ([5]; HepG2 cells, HepG2, 24 h, Neutral Red Uptake, read-out: IC50 (cytotoxic effect)): 1.8 µM

Membrane retention MR (%) (PAMPA assay): 1.16 ± 0.90%
Plasma stability (% ± SD) (in vitro [3]; human plasma, time 0 h): 89.10 ± 1.03%
Plasma stability (% ± SD) (in vitro [3]; human plasma, time 0.083 h): 90.80 ± 0.13%
Plasma stability (% ± SD) (in vitro [3]; human plasma, time 0.25 h): 92.18 ± 1.34%
Plasma stability (% ± SD) (in vitro [3]; human plasma, time 0.5 h): 88.72 ± 3.98%
Plasma stability (% ± SD) (in vitro [3]; human plasma, time 1 h): 89.70 ± 2.23%
Plasma stability (% ± SD) (in vitro [3]; human plasma, time 2 h): 84.51 ± 2.93%
Plasma stability (% ± SD) (in vitro [3]; human plasma, time 8 h): 83.07 ± 2.40%
Plasma stability (% ± SD) (in vitro [3]; human plasma, time 24 h): 77.94% and 77.94 ± 2.30%
percentage of unmodified compound in plasma (in vitro [3]; human plasma, up to 8 h of incubation): ≥ 80%
half-life (in vitro [4]): > 100 h
stability percentage in DMEM cell culture medium (in vitro [4]; DMEM 10% FBS, all time points up to 24 h): above 90%
DMEM cell culture medium stability (% ± SD) (in vitro [4]; DMEM 10% FBS, time 0 h): 104.19 ± 1.20%
DMEM cell culture medium stability (% ± SD) (in vitro [4]; DMEM 10% FBS, time 0.083 h): 106.18 ± 0.16%
DMEM cell culture medium stability (% ± SD) (in vitro [4]; DMEM 10% FBS, time 0.25 h): 107.78 ± 1.57%
DMEM cell culture medium stability (% ± SD) (in vitro [4]; DMEM 10% FBS, time 0.5 h): 103.73 ± 2.61%
DMEM cell culture medium stability (% ± SD) (in vitro [4]; DMEM 10% FBS, time 1 h): 104.88 ± 6.37%
DMEM cell culture medium stability (% ± SD) (in vitro [4]; DMEM 10% FBS, time 2 h): 98.81 ± 3.43%
DMEM cell culture medium stability (% ± SD) (in vitro [4]; DMEM 10% FBS, time 8 h): 97.14 ± 2.81%
DMEM cell culture medium stability (% ± SD) (in vitro [4]; DMEM 10% FBS, time 24 h): 91.14 ± 2.70%
half-life (in vitro [4]; buffer): 114 h
recovery at 0 min [6]: 92.3 ± 1.92%
Metabolic stability (%) ([7]; time 0 min): 92.32 ± 1.93%
Metabolic stability (%) ([7]; time 60 min): 90.65 ± 0.83%
SMILES: [H]/N=C1/NC(=O)C(=Cc2ccc(O)cc2)S1 [Mirin, (Z)-5-(4-Hydroxybenzylidene)-2-iminothiazolidin-4-one]
effect on Doxorubicin mutagenicity ([1]; 5 µM compound + Doxorubicin 0.3 to 30 µM, TA98): not able to affect Doxorubicin mutagenicity
effect on Doxorubicin mutagenicity ([2]; 5 µM compound + Doxorubicin 0.3 to 30 µM, TA100): not able to affect Doxorubicin mutagenicity
IC50 at 24 h ([5]; HepG2, 24 h, Neutral Red Uptake, read-out: IC50 (cytotoxic effect)): 50 µM
